Results from PMC6367362, “MD001, a Novel Peroxisome Proliferator-activated Receptor α/γ Agonist, Improves Glucose and Lipid Metabolism” (Scientific Reports, 2019).

Molecular target: T1, PPARβ/δ (Homo sapiens, UniProt Q03181)
T1 construct: HA; made in house
T1 sequence (Q03181 1-441): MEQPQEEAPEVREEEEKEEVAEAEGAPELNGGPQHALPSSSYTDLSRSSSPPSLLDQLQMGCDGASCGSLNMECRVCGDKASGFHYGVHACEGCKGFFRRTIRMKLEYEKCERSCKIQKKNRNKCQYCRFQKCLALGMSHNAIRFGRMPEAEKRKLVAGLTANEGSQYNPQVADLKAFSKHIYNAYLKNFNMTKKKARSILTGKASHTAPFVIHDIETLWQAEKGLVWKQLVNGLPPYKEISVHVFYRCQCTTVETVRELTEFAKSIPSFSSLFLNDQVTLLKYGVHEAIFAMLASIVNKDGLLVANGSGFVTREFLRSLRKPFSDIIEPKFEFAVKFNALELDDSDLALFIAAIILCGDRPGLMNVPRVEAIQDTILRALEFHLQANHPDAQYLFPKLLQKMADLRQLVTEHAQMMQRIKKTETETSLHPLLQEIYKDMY
Assay: SPR analysis of binding to immobilised HA-PPARβ/δ
Conditions: N.B = No binding up to 500 μM
Method: SPR analysis was performed using a Reichert SR7500DC (Reichert Technologies, Depew, NY, USA). HA-PPARα, HA-PPARβ/δ, and HA-PPARγ were purified as previously described[23] and was immobilised on CMDH chips (Reichert Technologies) according to the manufacturer’s instructions. MD001 was loaded in a dose-dependent manner (31.25, 62.5, 125, 250, and 500 μM) for the SPR assay. The dissociation constant (KD) value was determined using the Scrubber2 program (Informer Technologies, Inc., Los Angeles, CA, USA).

With `Cc1c(O)cc(O)c2c(-c3ccccc3)c(C(=O)/C=C/c3ccccc3)c(=O)oc12` [MD001] the “KD (M), second row of Supplementary Table S3 (PPARβ/δ)” value was “N.B”.
